# Assay results as given in ChEMBL document CHEMBL6087451, “Design, Synthesis, and Biological Evaluation of 2-Arylaminopyrimidine Derivatives as Dual Cathepsin L and JAK Inhibitors for the Treatment of Acute Lung Injury” (J Med Chem, 2025).
# The source made the active and inactive calls. No cut-off for these calls is given here.
# Experiments:
# HBE [1] = test: (§1) Anti-inflammatory activity against HBE cells assessed as inhibition of LPS-induced IL-8 level at 5 uM pretreated for 30 mins followed by LPS treatment for 24 hrs by ELISA relative to control; type: functional; details: Homo sapiens, time 24.5 hrs
# HBE [2] = test: (§2) Anti-inflammatory activity against HBE cells assessed as inhibition of LPS-induced IL-6 level at 5 uM pretreated for 30 mins followed by LPS treatment for 24 hrs by ELISA relative to control; type: functional; details: Homo sapiens, time 24.5 hrs
# [3] = as §2; type: functional; details: Homo sapiens, time 24.5 hrs
# [4] = as §1; type: functional; details: Homo sapiens, time 24.5 hrs
# [5] = Cytotoxicity against HBE cells assessed as cell survival at 10 uM by MTT assay relative to control; type: toxicity, cell-based; details: human; for viability at 10 µM: HBE cells, read-out: Survival
Structure (SMILES),inhibition (HBE [1]),inhibition (HBE [2]),inhibition at 5 µM [3],inhibition at 5 µM [4],"Activity ([5]; hbe, 10 µM)",viability at 10 µM [5]
CC(C)Nc1nccc(-c2cn(C)c3ccccc23)n1,inactive,inactive,,,,
Cn1cc(-c2ccnc(Nc3ccccc3)n2)c2ccccc21,inactive,,85%,,,
Cn1cc(-c2ccnc(Nc3ncccn3)n2)c2ccccc21,,inactive,,12%,,
Nc1cccc(Nc2nccc(-c3c[nH]c4ccccc34)n2)c1,Active,Active,,,Toxic,
CCCCNc1nccc(-c2cn(C)c3ccccc23)n1,inactive,inactive,,,,< 70%
Cn1cc(-c2ccnc(NC3CCCCC3)n2)c2ccccc21,inactive,inactive,,,,
Cn1cc(-c2ccnc(NC3CC3)n2)c2ccccc21,inactive,inactive,,,,< 70%
Nc1cccc(Nc2nccc(Oc3cccc(N)c3)n2)c1,,,54%,56%,,
Cn1cc(-c2ccnc(Nc3ccc(Cl)cc3)n2)c2ccccc21,,,54%,56%,,
Cc1ccccc1Nc1ccnc(Nc2cccc(N)c2)n1,,,54%,56%,,
CCOc1ccc(Nc2ccnc(Nc3cccc(N)c3)n2)cc1,,,54%,56%,,
Cc1ccc(Oc2nccc(-c3cn(C)c4ccccc34)n2)cc1,inactive,inactive,,,,
COc1ccc(Nc2ccnc(Nc3cccc(N)c3)n2)c(OC)c1,,,54%,56%,,
COc1ccccc1Nc1nccc(-c2cn(C)c3ccccc23)n1,inactive,,38%,,,
Cn1cc(-c2ccnc(Nc3cc(N)ccc3F)n2)c2ccccc21,,,69%,83%,,
COc1ccc(Oc2ccnc(Nc3cccc(N)c3)n2)cc1OC,,,54%,56%,,
Cn1cc(-c2ccnc(Nc3cccc(C#N)c3)n2)c2ccccc21,,,54%,56%,,
COc1cccc(Oc2ccnc(Nc3cccc(N)c3)n2)c1,,,54%,56%,,
Nc1cccc(Nc2nccc(N)n2)c1,inactive,inactive,,,,
Cn1cc(-c2ccnc(Nc3cccc(Cl)c3)n2)c2ccccc21,,,54%,56%,,

Structure (SMILES),inhibition (HBE [1]),inhibition (HBE [2]),inhibition at 5 µM [3],inhibition at 5 µM [4],"Activity ([5]; hbe, 10 µM)",viability at 10 µM [5]
Nc1cccc(Nc2nccc(Nc3cccc(Cl)c3)n2)c1,,,54%,56%,,
Cn1cc(-c2ccnc(Nc3cccc(C(=O)O)c3)n2)c2ccccc21,,,54%,56%,,
Cn1cc(-c2ccnc(Nc3cccnc3)n2)c2ccccc21,,,54%,56%,,< 70%
Cn1cc(-c2ccnc(Nc3ccccn3)n2)c2ccccc21,,,68%,56%,,< 70%
Nc1ccc(Oc2ccnc(Nc3cccc(N)c3)n2)cc1,,,54%,56%,,
Nc1cccc(Nc2nccc(Sc3ccc(Br)cc3)n2)c1,,,54%,56%,,
Nc1cccc(Nc2nccc(Nc3cccc(F)c3)n2)c1,,,54%,56%,,
Cn1cc(-c2ccnc(Nc3cccc(O)c3)n2)c2ccccc21,,,54%,56%,,
Cn1cc(-c2ccnc(N)n2)c2ccccc21,,,37%,38%,,
Nc1cccc(Nc2nccc(Oc3ccc(OC(F)(F)F)cc3)n2)c1,,,54%,56%,,
Cn1cc(-c2ccnc(Nc3cccc(CC(=O)O)c3)n2)c2ccccc21,,,54%,56%,,
COc1ccccc1Nc1ccnc(Nc2cccc(N)c2)n1,,,54%,56%,,
Cn1cc(-c2ccnc(Nc3ccc(N)cc3)n2)c2ccccc21,,,54%,56%,,
COc1cccc(Nc2ccnc(Nc3cccc(N)c3)n2)c1,,,54%,56%,,
Nc1cccc(Nc2nccc(Nc3cccc(Br)c3)n2)c1,,,54%,56%,,
CN(c1cccc(N)c1)c1nccc(-c2cn(C)c3ccccc23)n1,inactive,inactive,,,,
COc1cccc(Nc2ccnc(Nc3cccc(N)c3)n2)c1OC,,,54%,56%,,
Cn1nccc1Nc1nccc(-c2cn(C)c3ccccc23)n1,,,54%,64%,,
Cc1cccc(Nc2ccnc(Nc3cccc(N)c3)n2)c1C,,,54%,56%,,
COc1ccc(Nc2ccnc(Nc3cccc(N)c3)n2)cc1,,,54%,56%,,
